Results: patent publication US10406111B2, “Gold/lanthanide nanoparticle conjugates and uses thereof” (COLORADO SCHOOL OF MINES, priority 2009, dated 2019)

Experiment: In vitro MRI relaxation properties (relaxivity)
Source text: In vitro MRI of GdNPs and Polymer Modified Gd NPs. In order to provide information about the clinical imaging viability of the polymer modified gold/Gd nanoparticles, as a positive contrast agent, in vitro MRI was employed to determine relaxation properties of the unmodified and polymer modified gold/Gd nanoparticles. Table 1 compares the MRI longitudinal and transverse relaxivities, r1 and r2, respectively, of PNIPAM-modified gold/Gd nanoparticles and gold/Gd unmodified nanoparticles to the clinically employed contrasts agents, gadopentetate dimeglumine (Magnevist®) and gadobenate dimeglumine (Multihance®). […] By taking advantage of these properties, novel theragnostic polymer-modified gold/Gd nanoparticles could be produced and exploited as contrast agents for conventional T1 MR imaging.

SMILES	r1 (MRI longitudinal relaxivity) [mM⁻¹ s⁻¹]
CNC[C@H](O)[C@@H](O)[C@H](O)[C@H](O)CO.CNC[C@H](O)[C@@H](O)[C@H](O)[C@H](O)CO.O=C([O-])CN(CCN(CC(=O)[O-])CC(=O)O)CCN(CC(=O)[O-])CC(=O)O.[Gd+3] [Magnevist ®, gadopentetate dimeglumine]	6.95
CNC[C@H](O)[C@@H](O)[C@H](O)[C@H](O)CO.CNC[C@H](O)[C@@H](O)[C@H](O)[C@H](O)CO.O=C([O-])CN(CCN(CC(=O)[O-])CC(=O)O)CCN(CC(=O)O)C(COCc1ccccc1)C(=O)[O-].[Gd+3] (centres unmarked) [Multihance ®, gadobenate dimeglumine]	17.7
